Tests used:
[1] = system: MDA-MB-231 (breast adenocarcinoma); assay: Cell viability of chemoresistant MDA-MB-231 cells (Tables 1, 2, 4)
Text: (§1) The activity of the association of at least one flavonoid with synthetic chemotherapeutic agents (cyclophosphamide/methotrexate) and/or arctigenin, arctiin, berberine, berbamine, sanguinarine and chelerythrine (indicated with the term “Extracts” in the Tables) was studied in resistant cell lines of adenocarcinomas and carcinomas in comparison with chemosensitive tumour cell lines and line cells.
(§2) In particular, chemoresistant human tumour cells MDA-MB-231 (breast adenocarcinoma), ECV-304 (bladder carcinoma), HuH-7 (hepatocellular carcinoma) and HTB-43 (squamous cell carcinoma of the pharynx), chemosensitive tumour cells MCF-7 (breast adenocarcinoma) and non-tumoral healthy human mammal fibroblasts (HMF) were used.

[2] = system: MCF-7 (breast adenocarcinoma); assay: Cell viability of chemosensitive MCF-7 cells (Table 1); conditions: Homo sapiens, MCF7, read-out: Cell viability (%) MCF-7
Text: as §1, §2

in vitro = conditions: human
Text: as §1, §2

MDA-MB-231 cells = assay: Cell viability of MDA-MB-231 cells after 7 days of treatment (Tables 7-9); assay type: cell-based, human
[3] = system: healthy human mammal fibroblasts (HMF); assay: Cell viability of non-tumoral healthy fibroblasts HMF (Table 1); conditions: control = 100
Text: as §1, §2

[4] = system: ECV-304 (bladder carcinoma); assay: cells; conditions: Homo sapiens, ECV-304, read-out: Cell viability (%) ECV-304
Text: as §1, §2

[5] = system: HTB-43 (squamous cell carcinoma of the pharynx); assay: cells; conditions: Homo sapiens, read-out: Cell viability (%) HTB-43
Text: as §1, §2

[6] = system: HuH-7 (hepatocellular carcinoma); assay: cells; conditions: Homo sapiens, Huh-7, read-out: Cell viability (%) HuH-7
Text: as §1, §2

[7] = Homo sapiens, MDA-MB-231, read-out: Cell viability (%) MDA-MB-231

Question: For C[C@@H]1O[C@@H](OC[C@H]2O[C@@H](Oc3c(-c4ccc(O)c(O)c4)oc4cc(O)cc(O)c4c3=O)[C@H](O)[C@@H](O)[C@@H]2O)[C@H](O)[C@H](O)[C@H]1O [Rutin, 2-(3,4-dihydroxyphenyl)-4,5-dihydroxy-3-{3,4,5-trihydroxy-6-[(3,4,5-trihydroxy-6-methyl-oxan-2-yl)oxymethyl}oxan-2-yl]oxy-chromen-7-one], which viability at 20 µM [1, 7] is on record?
Answer: 66%

Question: What about the viability at 50 µM [1, 7] of the same compound?
Answer: 58%

Question: And the viability at 100 µM [1, 7]?
Answer: 51%

Question: And the viability at 20 µM [2]?
Answer: 8%

Question: And the viability at 50 µM [2]?
Answer: 5%

Question: And the viability at 100 µM [2]?
Answer: 4%

Question: And the viability at 20 µM (in vitro)?
Answer: 92%

Question: What about the viability at 50 µM (in vitro) of the same compound?
Answer: 88%

Question: What about the viability at 100 µM (in vitro) of the same compound?
Answer: 86%

Question: And the “Effect on cell viability of adding the flavonoid to cyclophosphamide 20 μM+methotrexate 2 μM” value (MDA-MB-231 cells; 20 μM of rutin, MDA-MB-231, 7 days)?
Answer: further reduces cell viability

Question: And the “Effect on cell viability of adding the flavonoid to cyclophosphamide 40 μM+methotrexate 4 μM” value (MDA-MB-231 cells; rutin at 100 μM and 50 μM, MDA-MB-231, 7 days)?
Answer: no statistically relevant difference

Question: Which results are given for O=P1(N(CCCl)CCCl)NCCCO1 (stereo not shown) [Cyclophosphamide, cyclophosphamide]?
Answer: viability at 0.85 µg/mL [1, 7]: 96%; viability at 1 µg/mL [1, 7]: 93%; viability at 1.3 µg/mL [1, 7]: 89%; viability at 0.85 µg/mL [2]: 6.9%; viability at 1 µg/mL [2]: 7.5%; viability at 1.3 µg/mL [2]: 8.6%; Cell viability (%) HMF ([3]; single agent at 850 ng/mL): 54%; Cell viability (%) HMF ([3]; single agent at 1000 ng/mL): 48%; Cell viability (%) HMF ([3]; single agent at 1300 ng/mL): 42%; viability at 0.85 µg/mL [4]: 70%; viability at 0.85 µg/mL [5]: 36%; viability at 0.85 µg/mL [6]: 58%; viability at 40 µM (MDA-MB-231 cells; Homo sapiens, MDA-MB-231, 168 h, read-out: Cell viability % (MDA-MB-231, 7 days)): 1.07 ± 0.22%

Question: For O=c1c(O)c(-c2ccc(O)c(O)c2)oc2cc(O)cc(O)c12 [Quercetin, quercetin], which viability at 20 µM [1, 7] is on record?
Answer: 91%

Question: What about the viability at 50 µM [1, 7] of the same compound?
Answer: 81%

Question: What about the viability at 100 µM [1, 7] of the same compound?
Answer: 76%

Question: And the “Synergistic effect in association with cyclophosphamide” value ([1]; MDA-MB-231 cells, alone or with cyclophosphamide 850 ng/mL)?
Answer: absence of synergistic effects

Reference: US11096975B2, “Compositions for use in the treatment of tumors resistant to chemotherapy” (PROBIOTICAL S.P.A., priority 2015, dated 2021)
